Measured values as given in patent US6362369B1, “Phthalic acid diamide derivatives fluorine-containing aniline compounds as starting material, agricultural and horticultural insecticides, and a method for application of the insecticides” (Nihon Nohyaku Co., Ltd., priority 1997, dated 2002).

How the values were obtained:
[1] = test system: rice leafroller (Cnaphalocrocis medinalis); experiment: Insecticidal effect on rice leafroller (Test Example 3); format: in vivo; settings: 500 ppm, 25° C., humidity 70%; for Insecticidal effect, Test Example 3: rice lamina immersed; for Insecticidal effect, Test Example 3 / Insecticidal effect on rice leafroller (Test Example 3), judged grade: four days after inoculation; for Insecticidal effect (Test Example 3), judged from mortality / Insecticidal effect on rice leafroller (Test Example 3), judged grade: rice lamina dip; for Insecticidal effect (Test Example 3), judged from mortality: 4 days after inoculation; for Insecticidal effect on rice leafroller (Test Example 3), judged grade: third-instar larvae
Outline: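 Insecticidal effect is judged by a predefined criterion from dead/alive counts four days after infesting air-dried lamina with third-instar larvae, kept on moistened filter paper at 25° C, 70% humidity.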

[2] = test system: diamondback moth (Plutella xylostella); experiment: Insecticidal effect on diamondback moth (Test Example 1); format: in vivo; settings: for Insecticidal effect, Test Example 1 / Insecticidal effect (Test Example 1), judged from mortality: diamondback moth; for Insecticidal effect (Test Example 1), judged from mortality: judged by the criterion of Test Example 1; for Insecticidal effect on diamondback moth (Test Example 1), judged grade: mortality judged according to the criterion shown in Test Example 1
Outline: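 Triplicate groups of 10 insects: eggs laid on Chinese cabbage seedling by adults, seedling immersed then air-dried, kept at 25° C. Day-6 hatch counts gave mortality, rated by criterion.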

[3] = third-instar larvae of rice leafroller
[4] = judged by the mortality criterion of Test Example 1
[5] = rice leafroller third-instar larvae
[6] = mortality judged by criterion of Test Example 1

Row | SMILES | Insecticidal effect on rice leafroller (Test Example 3), judged grade [1] | Insecticidal effect on diamondback moth (Test Example 1), judged grade [2] | other results
1 | CCCCc1ccc(NC(=O)c2cccc(Cl)c2C(=O)NC(C)C)cc1 [compound 87] | – | – | Insecticidal effect, Test Example 3 [1, 3]: A (100); Insecticidal effect, Test Example 1 [2, 4]: A (100)
2 | CCN(CC)C(=O)c1c(F)cccc1C(=O)Nc1ccc(OC(F)F)cc1C [compound 1528] | – | – | Insecticidal effect (Test Example 3), judged from mortality [1, 3]: A (100); Insecticidal effect (Test Example 1), judged from mortality [2]: A (100)
3 | COc1cc(NC(=O)c2c(I)cccc2C(=O)NC(C)C)ccc1OC(F)F [compound 450] | C (89-80) | A (100) | –
4 | Cc1cc(Oc2ncc(C(F)(F)F)cc2Cl)ccc1NC(=O)c1cccc([N+](=O)[O-])c1C(=O)NC(C)C [compound 729] | A (100) | A (100) | –
5 | CC(C)NC(=O)c1c(C(=O)Nc2ccc(C(F)(F)F)cc2Cl)cccc1[N+](=O)[O-] [compound 660] | A (100) | A (100) | –
6 | CC(C)NC(=O)c1c(C(=O)Nc2cc(Cl)ccc2Cl)cccc1[N+](=O)[O-] [compound 634] | D (79-50) | A (100) | –
7 | CC(C)NC(=O)c1c(C(=O)Nc2cccc(OC(F)F)c2)cccc1[N+](=O)[O-] [compound 616] | D (79-50) | A (100) | –
8 | Cc1cc(OC(C)C)ccc1NC(=O)c1cccc(I)c1C(=O)NC(C)C [compound 377] | – | – | Insecticidal effect, Test Example 3 [1, 3]: A (100); Insecticidal effect, Test Example 1 [2, 4]: A (100)
9 | Cc1cc(Cl)ccc1NC(=O)c1cc(F)ccc1C(=O)NC(C)C [compound 532] | A (100) | A (100) | –
10 | CC(C)NC(=O)c1c(C(=O)Nc2ccccc2C(C)C)cccc1[N+](=O)[O-] [compound 603] | C (89-80) | B (99-90) | –
11 | Cc1cc(OC(F)F)ccc1NC(=O)c1cccc(SCC(F)(F)F)c1C(=O)NC(C)C [compound 797] | C (89-80) | A (100) | –
12 | CCCN(CC)C(=O)c1c(F)cccc1C(=O)Nc1ccc(OC(F)F)cc1 [compound 1583] | – | – | Insecticidal effect (Test Example 3), judged from mortality [1, 3]: A (100); Insecticidal effect (Test Example 1), judged from mortality [2]: A (100)
13 | CCN(CC)C(=O)c1ccccc1C(=O)Nc1ccc(Cl)cc1C [compound 1752] | – | – | Insecticidal effect (Test Example 3), judged from mortality [1, 3]: A (100); Insecticidal effect (Test Example 1), judged from mortality [2]: A (100)
14 | Cc1c(Cl)cccc1NC(=O)c1c(F)cccc1C(=O)NC(C)C [compound 544] | A (100) | A (100) | –
15 | CC(C)NC(=O)c1c(Br)cccc1C(=O)Nc1ccc2c(c1)OCO2 [compound 300] | – | – | Insecticidal effect, Test Example 3 [1, 3]: A (100); Insecticidal effect, Test Example 1 [2, 4]: A (100)
16 | C=CCNC(=O)c1c(C(=O)Nc2ccc(OC(F)F)cc2C)cccc1[N+](=O)[O-] [compound 867] | C (89-80) | A (100) | –
17 | CCCCNC(=O)c1cccc(I)c1C(=O)Nc1ccc(C(F)(F)C(F)(F)F)cc1C [compound 946] | – | – | Insecticidal effect, Test Example 3 [1, 5]: A (100); Insecticidal effect, Test Example 1 [2, 6]: A (100)
18 | COc1ccccc1NC(=O)c1cccc([N+](=O)[O-])c1C(=O)NC(C)C [compound 612] | D (79-50) | A (100) | –
19 | CC(C)NC(=O)c1c(C(=O)Nc2cccc(SC(F)(F)F)c2)cccc1[N+](=O)[O-] [compound 623] | A (100) | A (100) | –
20 | Cc1cc(OC(F)F)ccc1NC(=O)c1cccc([N+](=O)[O-])c1C(=O)NC1CC1 [compound 852] | D (79-50) | A (100) | –
21 | CCN(CC)C(=O)c1c(F)cccc1C(=O)Nc1ccc(OC(F)(F)F)cc1 [compound 1548] | – | – | Insecticidal effect (Test Example 3), judged from mortality [1, 3]: A (100); Insecticidal effect (Test Example 1), judged from mortality [2]: A (100)
22 | Cc1ccc(Cl)cc1NC(=O)c1ccc2ccccc2c1C(=O)NC(C)C [compound 821] | A (100) | A (100) | –
23 | CC(C)NC(=O)c1c(F)cccc1C(=O)Nc1ccc(SC(F)F)cc1 [compound 477] | C (89-80) | A (100) | –
24 | CSc1cccc(C(=O)Nc2ccc(Br)cc2C)c1C(=O)NC(C)C [compound 782] | A (100) | A (100) | –

Row | SMILES | Insecticidal effect on rice leafroller (Test Example 3), judged grade [1] | Insecticidal effect on diamondback moth (Test Example 1), judged grade [2] | other results
25 | Cc1ccc(NC(=O)c2cccc([N+](=O)[O-])c2C(=O)NC(C)C)c(C)c1Cl [compound 670] | D (79-50) | A (100) | –
26 | Cc1cc(C(F)(F)C(F)(F)F)ccc1NC(=O)c1c(F)cccc1C(=O)NC(C)C [compound 551] | A (100) | A (100) | –
27 | CC(C)NC(=O)c1ccccc1C(=O)Nc1ccc(SC(F)(F)Br)cc1 [compound 1106] | – | – | Insecticidal effect, Test Example 3 [1, 5]: A (100); Insecticidal effect, Test Example 1 [2, 6]: A (100)
28 | CC(C)NC(=O)c1c(C(=O)Nc2ccccc2Br)cccc1[N+](=O)[O-] [compound 589] | A (100) | A (100) | –
29 | Cc1cc(OC(F)(F)Br)ccc1NC(=O)c1c(Br)cccc1C(=O)NC(C)C [compound 327] | – | – | Insecticidal effect, Test Example 3 [1, 3]: A (100); Insecticidal effect, Test Example 1 [2, 4]: A (100)
30 | Cc1cc(OC(F)F)ccc1NC(=O)c1cccc(OC(F)F)c1C(=O)NC(C)C [compound 774] | A (100) | A (100) | –
31 | CC(C)NC(=O)c1ccccc1C(=O)Nc1ccc(S(=O)(=O)C(F)(F)F)cc1 [compound 1077] | – | – | Insecticidal effect, Test Example 3 [1, 5]: A (100); Insecticidal effect, Test Example 1 [2, 6]: A (100)
32 | CC(C)NC(=O)c1c(Cl)cccc1C(=O)Nc1ccc(SC(F)F)cc1 [compound 98] | – | – | Insecticidal effect, Test Example 3 [1, 3]: C (89-80); Insecticidal effect, Test Example 1 [2, 4]: A (100)
33 | Cc1cc(C(F)(F)C(F)(F)F)ccc1NC(=O)c1c(C)cccc1C(=O)NC(C)C [compound 954] | – | – | Insecticidal effect, Test Example 3 [1, 5]: A (100); Insecticidal effect, Test Example 1 [2, 6]: A (100)
34 | CC(C)NC(=O)c1cccc(I)c1C(=O)Nc1cccc(C(F)(F)F)c1 [compound 414] | – | – | Insecticidal effect, Test Example 3 [1, 3]: A (100); Insecticidal effect, Test Example 1 [2, 4]: A (100)
35 | Cc1cc(Cl)ccc1NC(=O)c1c(OC(F)F)cccc1C(=O)NC(C)C [compound 777] | D (79-50) | A (100) | –
36 | Cc1ccc(C)c(NC(=O)c2cccc([N+](=O)[O-])c2C(=O)NC(C)C)c1 [compound 649] | C (89-80) | A (100) | –
37 | CC(C)NC(=O)c1c(F)cccc1C(=O)Nc1ccc(C(F)(F)C(F)(F)C(F)(F)C(F)(F)F)cc1 [compound 472] | B (99-90) | A (100) | –
38 | Cc1cc(C(F)(F)C(F)(F)F)ccc1NC(=O)c1cccc(I)c1C(=O)N(C)CC(C)C [compound 1043] | – | – | Insecticidal effect, Test Example 3 [1, 5]: A (100); Insecticidal effect, Test Example 1 [2, 6]: A (100)
39 | CC(C)NC(=O)c1cccc(Br)c1C(=O)Nc1ccc(C(F)(F)F)cc1Cl [compound 315] | – | – | Insecticidal effect, Test Example 3 [1, 3]: A (100); Insecticidal effect, Test Example 1 [2, 4]: A (100)
40 | Cc1ccc(NC(=O)c2c(Br)cccc2C(=O)NC(C)C)c(C)c1OC(F)F [compound 320] | – | – | Insecticidal effect, Test Example 3 [1, 3]: D (79-50); Insecticidal effect, Test Example 1 [2, 4]: A (100)
41 | CCN(CC)C(=O)c1cc(Cl)cc(I)c1C(=O)Nc1ccc(C(F)(F)C(F)(F)F)cc1C [compound 1281] | – | – | Insecticidal effect, Test Example 3 [1, 5]: A (100); Insecticidal effect, Test Example 1 [2, 6]: A (100)
42 | Cc1ccc(Cl)cc1NC(=O)c1c(Br)cccc1C(=O)NC(C)C [compound 307] | – | – | Insecticidal effect, Test Example 3 [1, 3]: D (79-50); Insecticidal effect, Test Example 1 [2, 4]: A (100)
43 | Cc1cc(Oc2ccc(C(F)(F)F)cn2)ccc1NC(=O)c1c(Br)cccc1C(=O)NC(C)C [compound 335] | – | – | Insecticidal effect, Test Example 3 [1, 3]: B (99-90); Insecticidal effect, Test Example 1 [2, 4]: A (100)
44 | CCCNC(=O)c1c(Cl)cccc1C(=O)Nc1ccc(OC(F)F)cc1C [compound 15] | – | – | Insecticidal effect, Test Example 3 [1, 3]: A (100); Insecticidal effect, Test Example 1 [2, 4]: A (100)
45 | Cc1ccc(Cl)cc1NC(=O)c1cc2ccccc2cc1C(=O)NC(C)C [compound 822] | D (79-50) | D (79-50) | –
46 | CC(C)NC(=O)c1cccc(Cl)c1C(=O)Nc1ccc(C(F)(F)F)cc1Cl [compound 220] | – | – | Insecticidal effect, Test Example 3 [1, 3]: A (100); Insecticidal effect, Test Example 1 [2, 4]: A (100)
47 | Cc1cc(C(F)(F)C(F)(F)F)ccc1NC(=O)c1c(I)cccc1C(=O)N(C)Cc1ccccc1 [compound 1439] | – | – | Insecticidal effect, Test Example 3 [1, 5]: C (89-80); Insecticidal effect, Test Example 1 [2, 6]: A (100)
